Measurements published in PubChem BioAssay (NCI).
Values joined by “and” are separate entries in the source; they are usually repeats but may differ in a detail not shown here. Equal values may be shown once.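 Exposure lasted 48 hours, with cells grown in 96-well plates and compounds tested at five concentrations. GI50 = concentration required for 50% inhibition of growth. Definition used: TGI = concentration required for complete inhibition of growth.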

How the values were obtained:
Experiment in all cases: inhibition of tumour cell growth, NCI panel, 48 h
[1] = system: DLD-1 colon
[2] = system: M14 melanoma
[3] = system: RXF 393 renal
[4] = system: SN12C renal
[5] = system: TK-10 renal
[6] = system: UO-31 renal
[7] = system: HOP-62 NSCLC
[8] = system: KM20L2 colon
[9] = system: MDA-MB-231 breast
[10] = system: MDA-MB-435

SMILES	TGI [1] [µM]	TGI [2]	TGI [3]	TGI [4]	TGI [5]	TGI [6]	GI50 [7]	TGI [7]	TGI [8] [µM]	GI50 [2]	GI50 [9]	TGI [9] [µM]	GI50 [10]	TGI [10] [µM]	GI50 [3]	GI50 [4]	GI50 [5]	GI50 [6] [µM]	GI50 [1] [µM]
O=C(NC1CCCCC1)NS(=O)(=O)c1ccc2c(c1)CCC2	> 100	> 100 µM	> 100 µM	> 100 µM	> 100 µM	> 100 µM													
Nc1nc(OCc2ccccc2)c2[nH]cnc2n1	400	204 µM and 116 µM	94.5 µM and 169 µM and 145 µM	400 µM and 193 µM	183 µM and 104 µM	82 µM and 82.2 µM	42 µM and 23.5 µM	209 µM and 70.9 µM	400	25.6 µM and 26.5 µM	36.5 µM and 31.5 µM	163	41.1 µM and 26.9 µM	143	14.4 µM and 22.1 µM	29.4 µM and 26.4 µM	56.4 µM and 11.7 µM	17.1	
CCN(CC)CC1c2ccccc2C(CNc2ccccc2)N1C (centres undefined)	> 100	> 100 µM	> 100 µM	> 100 µM	> 100 µM	> 100 µM		> 100 µM	> 100										
N#CC(=C1C=CC(=NO)C=C1)c1ccc(Cl)cc1	39	41.5 µM	36.5 µM	58.7 µM	75 µM	31.7 µM		41.6 µM	> 100										
CC(=O)CN(Cc1cc(C)c2c(c1)c1ccccc1n2Cc1ccccc1)S(=O)(=O)c1ccc(C)cc1	> 100	> 100 µM			> 100 µM	> 100 µM		> 100 µM											
Cc1ccc2c(C3Cc4ccccc4N3C(=O)/C=C\C(=O)O)c(C)[nH]c2c1 (centres undefined)	> 100	> 100 µM	93.8 µM	> 100 µM	> 100 µM	> 100 µM		> 100 µM	> 100										
Fc1ccc(C2SCc3nc4ccccc4n32)c(F)c1 (centres undefined)	> 100	> 100 µM	> 100 µM	> 100 µM	> 100 µM	> 100 µM		> 100 µM	> 100										
COc1ccc(C=O)c([N+](=O)[O-])c1		> 100 µM	> 100 µM	> 100 µM	> 100 µM	> 100 µM		> 100 µM	45.2										
CC#CCC1CCC(OCC)=CC1=O (centres undefined)	> 100	> 100 µM	> 100 µM	> 100 µM	> 100 µM	> 100 µM		> 100 µM	> 100										
CC(=O)NC(CCCNC(=O)N(CCCl)N=O)C(=O)NCc1ccccc1 (centres undefined)	> 100	> 100 µM	> 100 µM	> 100 µM	> 100 µM	> 100 µM		> 100 µM	> 100										
Cc1ccc(-c2nnc(-c3nn(-c4ccccc4)c4nc5ccccc5nc34)o2)cc1	> 100	> 100 µM	20.5 µM	> 100 µM	31.2 µM	39 µM		27.3 µM	> 100										
O=C1OC(Cc2ccccc2)(N2CCCC2=O)C1c1ccccc1 (centres undefined)	> 100	> 100 µM		> 100 µM	> 100 µM	> 100 µM		> 100 µM	> 100										
CCOC(=O)C1C(=S)NC(=O)C1C#N (centres undefined)	> 100	> 100 µM	> 100 µM	> 100 µM	> 100 µM	> 100 µM		> 100 µM	> 100										
O=C1NC(=O)C2C(=O)NC(=O)C1C2c1c(Cl)cccc1Cl (centres undefined)	> 60.8	> 100 µM	98.1 µM	> 100 µM	> 100 µM	> 100 µM		> 100 µM	> 83.6										
Fc1ccc(/C=N/n2c(-c3ccc(F)c(Cl)c3)nn(CNc3ccccc3C(F)(F)F)c2=S)cc1		> 100 µM	> 100 µM	> 100 µM	> 100 µM	> 100 µM	> 100 µM	> 100 µM		43.1 µM	67 µM	> 100	43.1 µM	> 100	59.4 µM	39.3 µM	38.7 µM	34.8	
O=C(O)CN1CCN(CC(=O)O)CC(=O)[O][Hg][O]C(=O)C1		31 µM	32.5 µM	34.8 µM	29.5 µM	31.4 µM	25.1 µM	> 66.2 µM		16.4 µM	19.6 µM	35.3	16.2 µM	30.5	18.1 µM	18.5 µM	16 µM	17.5	
O=C1CC(c2c[nH]c3ccccc23)C(=O)N1 (centres undefined)	> 100	> 100 µM	> 100 µM		> 100 µM	> 100 µM		> 100 µM	> 100										
COc1cccc(OC(=O)c2ccc(C(F)(F)F)nc2Nc2cc(Cl)ccc2C)c1		56.6 µM	0.987 µM	> 100 µM	92 µM	> 100 µM	15.6 µM	36.1 µM		19.3 µM	2.76 µM	15.7	24.2 µM	58.2	0.245 µM	29.2 µM	30.7 µM	5.8	
CC(=O)Nc1ccc(SC#N)c2c(NC(C)=O)cccc12	> 100	> 100 µM	> 100 µM	> 100 µM	> 100 µM	> 100 µM		> 100 µM	> 100										
CCCP1(=O)C=C(C)C(=C(Cl)Cl)C(C)=C1 (centres undefined)	> 100	> 100 µM	> 100 µM	66.7 µM	> 100 µM	> 100 µM		> 100 µM	47.1										
COc1ccccc1-c1cc(=O)c2cc(C)cnc2[nH]1		> 100 µM	> 100 µM	> 100 µM	> 100 µM	> 100 µM		> 100 µM				> 100		27.3					

SMILES	TGI [1] [µM]	TGI [2]	TGI [3]	TGI [4]	TGI [5]	TGI [6]	GI50 [7]	TGI [7]	TGI [8] [µM]	GI50 [2]	GI50 [9]	TGI [9] [µM]	GI50 [10]	TGI [10] [µM]	GI50 [3]	GI50 [4]	GI50 [5]	GI50 [6] [µM]	GI50 [1] [µM]
COc1cccc(OC)c1C(=O)OCc1ccccc1	> 100	> 100 µM	> 100 µM	> 100 µM	> 100 µM			> 100 µM	> 100										
O=C1c2ccccc2-c2cc([N+](=O)[O-])c([N+](=O)[O-])cc21		3.43 µM	2.64 µM	3.42 µM	2.81 µM	3.07 µM		3.13 µM				3.33		3.27					
NNC(=O)CS(=O)(=O)Nc1ncccn1		> 100 µM	> 100 µM	> 100 µM	> 100 µM	> 100 µM		> 100 µM				> 100		> 100					
O=C1c2c(c3c4ccccc4[nH]c3c3ccc4ccccc4c23)C(=O)N1CCN1CCNCC1		3.24 µM	3.39 µM	3.13 µM	3.24 µM	2.53 µM	1.81 µM	3.69 µM		1.67 µM	1.72 µM	3.27	1.67 µM	3.11	1.76 µM	1.68 µM	1.77 µM	1.24	
Clc1ccc(Nc2nc3ccccc3nc2-c2cccs2)cc1Cl	> 100		89.2 µM	> 100 µM	> 100 µM	> 100 µM		> 100 µM	> 100										
Cc1cc(S(=O)(=O)/N=C(/N)Nc2ccccc2O)c(SCc2ccccc2)cc1Cl		32.3 µM	27.9 µM	30.4 µM	41.2 µM	25.7 µM	20.7 µM	37.3 µM		15.3 µM	14.8 µM	32.2	13.5 µM	32	12.1 µM	14.3 µM	22.9 µM	6.99	
CC(=O)C(CN(CC(C)C)CC(C)C)C(c1ccccc1)c1c(O)c2ccccc2oc1=O (centres undefined)	> 100	> 100 µM	> 100 µM	> 100 µM	> 100 µM			> 100 µM	> 100										
COc1ccc(-c2nc(Nc3cc(C)[nH]n3)c3ccccc3n2)cc1		31.4 µM	2.67 µM	> 100 µM	8.11 µM	14.9 µM	1.17 µM	> 26.2 µM		0.75 µM	4.21 µM	> 100	1.3 µM	> 100	0.6 µM	2.01 µM	0.865 µM	0.529	
CC(C)C[C@H](NC(=O)CNC(=O)c1cc(Cl)ccc1Cl)B1OC(=O)CC(CC(=O)O)(C(=O)O)O1 (some centres undefined)		0.143 µM	0.0438 µM	0.982 µM	0.373 µM	2 µM	0.124 µM	1.05 µM		0.034 µM	0.0532 µM	0.485	0.0222 µM	0.0612	0.0193 µM	0.0862 µM	0.0287 µM	0.0586	
COc1cc(C(=O)C/C(CCC(=O)Nc2ccccc2[N+](=O)[O-])=N\NC(N)=O)ccc1O		> 100 µM	> 100 µM	> 100 µM	> 100 µM	> 100 µM		> 100 µM	> 100										
CCc1ccc2c(c1)N(CCO)C1=C(C(=O)OC1)C2c1cccc(Br)c1 (centres undefined)		10.8 µM	1.82 µM	18.9 µM	18.4 µM	18.1 µM	0.462 µM	14.5 µM		0.525 µM	2.43 µM	15.7	0.0979 µM	0.521	0.216 µM	1.35 µM	1.81 µM	1.05	
CO/N=C(\COc1ccc2c(c1)[nH]c1ccccc12)c1ccc(F)cc1		> 100 µM	> 100 µM	> 100 µM	> 100 µM	> 100 µM	6.44 µM	26.7 µM		> 100 µM	20.1 µM	> 100	> 100 µM	> 100	27.6 µM	> 100 µM	25.9 µM	> 100	
CCC(=O)C12OC3OC(C)(C)OC3C1OC(C)(C)O2 (centres undefined)	> 100	> 100 µM	> 100 µM	> 100 µM	> 100 µM	> 100 µM		> 100 µM											
CC1(O)C=CC(=O)C=C1	28.2	41.6 µM	44.4 µM	> 100 µM	> 93 µM	> 84.5 µM		> 79.9 µM	> 100										
Cc1[nH]c2ccccc2c1C(=O)CC1(O)C(=O)Nc2c(Cl)cc(Cl)cc21 (centres undefined)	> 100	53.9 µM	39.2 µM	55.6 µM	> 100 µM	60.9 µM		> 100 µM											
COc1cc2nc(N3CCCC3)nc(NCCc3ccccc3)c2cc1OC		3.69 µM	2.76 µM	3.79 µM	3.56 µM	2.69 µM	1.93 µM	3.86 µM		1.8 µM	1.79 µM	3.35	1.74 µM	3.25	1.28 µM	1.87 µM	1.97 µM	1.29	
CN(N=O)C(=O)ON1C(=O)CCC1=O	> 100	> 100 µM			> 100 µM	> 100 µM		> 100 µM	> 100										
O=C1C(=C([O-])c2ccccc2)C(=O)c2ccccc21.O=C1C(=C([O-])c2ccccc2)C(=O)c2ccccc21.[Fe+2]	> 100	> 100 µM		> 100 µM	> 100 µM	> 100 µM	> 100 µM	> 100 µM		> 100 µM						> 100 µM	88.3 µM	44.8	> 100
COC(=O)C1CC2CC(=NNC(N)=O)CC2C1 (centres undefined)	> 100	> 100 µM	> 100 µM	> 100 µM	> 100 µM	> 100 µM		> 100 µM											
CCOC(=O)C1=C(C)N(c2ccc(Cl)cc2)[C@]2(C#N)C(O)=C(Cl)C(Cl)=C(O)[C@]12C#N		> 100 µM	> 100 µM	> 100 µM	> 100 µM	> 100 µM	> 100 µM	> 100 µM		49.7 µM	38.8 µM	> 100	44.8 µM	> 100	> 100 µM	> 100 µM	65.4 µM	53.8	
C1CCC([PH+](C2CCCCC2)C2CCCCC2[PH+](C2CCCCC2)C2CCCCC2)CC1.[Au].[CH-]1CCCCC1CC1CCCC[N-]1 (centres undefined)		1.27 µM	1.12 µM	2.93 µM	2.05 µM	2.61 µM	0.349 µM	2.58 µM		0.297 µM	0.227 µM	0.689	0.286 µM	1.01	0.277 µM	0.285 µM	0.516 µM	1.3	
